How the values were obtained:
[1] = system: middle aged and terminally senescent HFL-1 HDFs; experiment: Reversal of senescent phenotype: cell number, morphology and β-galactosidase staining after 1 week of treatment; format: cell-based, human; settings: for proliferation (number of cells) / β-galactosidase activity staining: 1 week; for morphology and proliferation: summary of section 3, middle aged or terminally senescent cells
Description: (§1) The steps, methods and results that were obtained regarding the anti-aging properties of the examined substances are the following: • 1) Study of the lifespan of human diploid fibroblasts in vitro in the presence of the substances. • 1.1. HFL-1 human diploid fibroblasts (HDFs) were used in in vitro conditions (growth at 37°C, 5% CO2 and 95% humidity). • 1.2. The cells were maintained in Dulbecco's modified Eagle's medium (DMEM ®; Invitrogen Life Technologies Inc.) supplemented with 10% (v/v) fetal calf serum, 100 Units/ml penicillin, 100 µg/ml strepromycin, 2 mM glutamine and 1% (v/v) non-essential amino acids (complete medium). • 1.3. The cells were constantly cultured in culture medium supplemented with the substances [final concentration for quercetin (QUER), 18α-glycyrrhetinic acid (18α GA), and hederagenin (HED): 2 µg/ml and for quercetin caprylate (QU-CAP) three concentrations were applied: 0.5, 2 and 5 µg/ml]. Quercetin, 18α-glycyrrhetinic acid and hederagenin were diluted in DMSO (dimethyl sulfoxide) whereas quercetin caprylate was diluted in caprilic/capric triglycerides (CAP). Therefore, the control cultures were incubated in medium supplemented with 0.1% DMSO or 0.1% CAP. • 1.4. The cells were replenished with fresh media supplemented with the substances or the diluents every 24 h and their numbers were examined using a Coulter Z2 ® counter (Coulter Corporation) until they reached senescence (approximately after 13 weeks). The cumulative population doublings performed by each culture were calculated using the following formula: CPD=Σ[PD] where PD=LOG[Nfinal/Ninitial]/LOG[2], where N final represents the number of cells that were measured when each culture reached confluence and N initial represents the number of cells that was initially seeded. • 1.5. Photographs of the cells maintained in cell culture and treated with the various substances for the same time period were taken. • 1.6. […] More specifically, cells that were incubated with quercetin caprylate gave up to 2.8% more population doublings as compared to the population doublings performed by the relative control cultures. Cells that were incubated with the other substances gave up to 2.9% more population doublings as compared to their relative control cultures. • 1.7. […] Cells that were treated with either of the tested substances maintained the young morphology for longer as compared to the control cultures (DMSO-treated and CAP-treated). […] HFL-1 HDFs were cultured as described in 1.1-1.4 for 10 consecutive weeks and were then subjected to β-galactosidase activity staining. • 1.2. Briefly, 10^5 cells from each culture were seeded in 6-well plates. After 24 h cells were washed with PBS (phosphate buffered saline), fixed in 0.2% glutaraldehyde and 2% formaldehyde for 5 min, washed again with PBS, and finally stained for 24 h at 37 °C in the absence of CO2, in staining solution (150 mM NaCl, 2 mM MgCl2, 5 mM K3Fe(CN)6, 40 mM citric acid, and 12 mM sodium phosphate, pH 6.0) containing 1 mg/ml 5-bromo-4-chloro-3-indolyl-β-D-galactoside. Photographs were then taken. • 1.3. […] HFL-1 HDFs that have senesced in vitro were used (growth at 37°C, 5% CO2 and 95% humidity). More specifically, middle aged HFL-1 HDFs (cpd 59) and terminally senescent HFL-1 HDFs (cpd 65) that had senesced in the absence of any substance were used. • 3.2. The cells were seeded and maintained in complete medium (see 1.2). Culture medium supplemented with the substances [final concentration for quercetin (QUER), 18α-glycyrrhetinic acid (18α GA), and hederagenin (HED): 2 µg/ml and for quercetin caprylate (QU-CAP) three concentrations were applied: 0.5, 2 and 5 µg/ml] or the diluents (0.1% DMSO or 0.1% CAP) were added 24 h later. The cells were replenished with fresh media supplemented with the substances or the diluents every 24 h for 1 week and their numbers were then examined using a Coulter Z2 ® counter (Coulter Corporation). • 3.3. […]

[2] = system: HFL-1 human diploid fibroblasts; experiment: Lifespan (cumulative population doublings) and morphology of fibroblasts under continuous treatment; format: cell-based; set-up: key to cpd: cumulative population doublings: CPD=Σ LOG[Nfinal/Ninitial]/LOG[2]; settings: for appearance of the senescent phenotype: summary of sections 1 and 2
Description: as §1

[3] = system: Mouse melanocytes (B10F16 cell line); experiment: Cellular whitening of melanocytes (cell pellet photographs); format: cell-based; settings: 72 h
Description: (§2) The steps, methods and results that were obtained regarding the whitening properties of the examined substances are the following: • A) Cellular whitening of melanocytes. • A.1. Mouse melanocytes (B10F16 cell line) were used in in vitro conditions (growth at 37°C, 5% CO2 and 95% humidity). • A.2. The cells were maintained in Dulbecco's modified Eagle's medium (DMEM®; Invitrogen Life Technologies Inc.) supplemented with 10% (v/v) fetal calf serum, 100 Units/ml penicillin, 100 µg/ml strepromycin, 2 mM glutamine and 1% (v/v) non-essential amino acids (complete medium). • A.3. 10^5 cells were seeded in petri dishes and the following day they were fed with medium supplemented with the substances [final concentration for all substances: 5 µg/ml and 10 µg/ml]. Quercetin (QUER), 18α-glycyrrhetinic acid (18α GA) and hederagenin (HED) were diluted in DMSO whereas quercetin caprylate was diluted in caprilic/capric triglycerides (CAP). Therefore, the control cultures were incubated in medium supplemented with 0.1% DMSO or 0.1% CAP. The media were replenished every 24 h and the cells were kept under these conditions constantly for 72 h. Cells were then collected and pelleted and the cell pellet was photographed. • A.4. […] The result was positively correlated to the concentration of quercetin used. • B) Detection of tyrosinase expression. • B.1. Mouse melanocytes were cultured as described in A.1.-A.3. After 72 h of treatment, the cells were collected, lysed and proteins were extracted and subjected to SDS-PAGE followed by immunoblot analysis against tyrosinase. Protein concentrations were determined using the Bradford method with BSA as a standard. • B.2.
Photographs of pellet of melanocytes that were treated with the substances for 72 h.

[4] = system: HFL-1 HDFs; experiment: Cell survival with or without oxidative stress; format: cell-based, human; settings: for higher survival rate as compared to control cultures: 300 µM H2O2 for 2.5 h, then additional 24 h in culture; for survival to an oxidative stress challenge: summary, versus control cells
[5] = system: tyrosinase; experiment: Immunoblot of tyrosinase expression in melanocytes; format: cell-based, Mouse; settings: 72 h
Description: as §2
Immunoblot analysis of tyrosinase (70-80 kDa) in melanocytes treated with the substances or the relative diluents. Equal protein loading was verified by stripping the membrane and reprobing them with GAPDH (37 kDa) antibody (bottom panel).

[6] = middle aged cells (cpd 59), 2 µg/ml, quercetin caprylate 0.5, 2 and 5 µg/ml
[7] = middle aged cells, 2 µg/ml, quercetin caprylate all three concentrations
[8] = HFL-1 cells, 2 µg/ml, 13 consecutive weeks
[9] = Table 2, 2 µg/ml, 55 days in culture
[10] = terminally senescent cells (cpd 65), 2 µg/ml, quercetin caprylate 2 and 5 µg/ml
[11] = terminally senescent cells, quercetin 2 µg/ml, quercetin caprylate higher concentrations
[12] = HFL-1 cells, 0, 5 µg/ml, 13 consecutive weeks
[13] = HFL-1 cells, 5 µg/ml, 13 consecutive weeks

CC1(C)[C@@H](O)CC[C@]2(C)[C@H]3C(=O)C=C4[C@H]5C[C@@](C)(C(=O)O)CC[C@]5(C)CC[C@@]4(C)[C@]3(C)CC[C@@H]12 [18α-glycyrrhetinic acid]
proliferation (number of cells) [1, 6]: higher proliferation rates | β-galactosidase activity staining [1, 7]: less positive to β-galactosidase activity staining | morphology and proliferation [1]: regained a younger morphology and were induced to limited but significant proliferation | cpd [2, 8]: 67 | cpd, change versus relative diluent control [2, 8]: +2.9% | cpd [2, 9]: 65.02 | appearance of the senescent phenotype [2]: delay in the appearance of the senescent phenotype | whitening of melanocyte pellet ([3]; lower concentration (5 µg/ml)): whitening potential | higher survival rate as compared to control cultures [4]: 2% | higher survival rate as compared to diluent-treated cells ([4]; 24 h treatment, no oxidative stress): 3.5% | survival to an oxidative stress challenge [4]: survived better

CC1(C)CC[C@]2(C(=O)O)CC[C@]3(C)C(=CC[C@@H]4[C@@]5(C)CC[C@H](O)[C@@](C)(CO)[C@@H]5CC[C@]43C)[C@@H]2C1 [Hederagenin]
cpd [2, 8]: 65.4 | cpd, change versus relative diluent control [2, 8]: +0.5% | cpd [2, 9]: 65.06 | protein levels of tyrosinase ([5]; high concentration (10 µg/ml)): reduced protein levels of tyrosinase | whitening of melanocyte pellet ([3]; lower concentration (5 µg/ml)): whitening potential

O=c1c(O)c(-c2ccc(O)c(O)c2)oc2cc(O)cc(O)c12 [Quercetin]
proliferation (number of cells) [1, 6]: higher proliferation rates | β-galactosidase activity staining [1, 7]: less positive to β-galactosidase activity staining | morphology and proliferation [1]: regained a younger morphology and were induced to limited but significant proliferation | proliferation (number of cells) [1, 10]: limited but sigmificant cell proliferation | β-galactosidase activity staining [1, 11]: many of those cells were negative for β-gatactosidase activity | cpd [2, 8]: 57.24 | cpd [2, 9]: 54.39 | appearance of the senescent phenotype [2]: delay in the appearance of the senescent phenotype | protein levels of tyrosinase ([5]; 5 µg/ml and 10 µg/ml): reduced protein levels of tyrosinase | whitening effect compared to the other substances ([3]; 5 µg/ml and 10 µg/ml): notably more intensed | whitening of melanocyte pellet ([3]; both concentrations (5 µg/ml and 10 µg/ml)): whitening potential | higher survival rate as compared to control cultures [4]: ≤ 14.5% | survival to an oxidative stress challenge [4]: survived better

quercetin caprylate
proliferation (number of cells) [1, 6]: higher proliferation rates | β-galactosidase activity staining [1, 7]: less positive to β-galactosidase activity staining | morphology and proliferation [1]: regained a younger morphology and were induced to limited but significant proliferation | proliferation (number of cells) [1, 10]: limited but sigmificant cell proliferation | β-galactosidase activity staining [1, 11]: many of those cells were negative for β-gatactosidase activity | cpd [2, 12]: 65.9 | cpd, change versus relative diluent control [2, 12]: +2.6% | cpd [2, 8]: 66.0 | cpd, change versus relative diluent control [2, 8]: +2.8% | cpd [2, 13]: 65.4 | cpd, change versus relative diluent control [2, 13]: +1.9% | cpd ([2]; Table 2, 0,5 µg/ml, 55 days in culture): 65.09 | cpd [2, 9]: 64.87 | cpd ([2]; Table 2, 5 µg/ml, 55 days in culture): 63.96 | more population doublings as compared to the relative control cultures ([2]; summary of Table 1, quercetin caprylate 0.5, 2 and 5 µg/ml, other substances 2 µg/ml): up to 2.8% | appearance of the senescent phenotype [2]: delay in the appearance of the senescent phenotype | protein levels of tyrosinase ([5]; 5 µg/ml and 10 µg/ml): reduced protein levels of tyrosinase | higher survival rate as compared to control cultures [4]: ≤ 14.5% | survival to an oxidative stress challenge [4]: survived better
